The record followed here is publication PMC5352362, “Molecular and functional evaluation of a novel HIF inhibitor, benzopyranyl 1,2,3-triazole compound” (Oncotarget, 2016).

The test system of this assay is chick chorioallantoic membrane angiogenesis. Description: Chick embryo chorioallantoic membrane (CAM) assay. Format: in vivo. As to conditions: applied to ED 4.5 CAM for two days; Compound 12 0.1 μg and 1 μg. How it is done: Figure 5 Compound 12 suppressed HIF-1α target gene expression, and confirmation of in vitro results via determination of effects on angiogenesis in vivo (A) A549 cells were treated with Compound 12 (at concentrations of 0 nM, 1 nM, 10 nM, and 100 nM) for 16 h. The mRNA levels of HIF-1α target genes were determined by semiquantitative RT-PCR. β-actin was used as an internal control. D. DMSO vehicle control. N, normoxia; H, hypoxia. (B) A549 cells were treated with serum-reduced culture media containing Compound 12 (at concentrations of 0 nM, 10 nM, and 100 nM) for 16 h. Media supernatant was collected, and secreted VEGF was determined by ELISA after removal of cellular debris. N, normoxia; H, hypoxia. **P < 0.01 versus hypoxia (H) DMSO (D)-treated control. (C) HUVECs were treated with Compound 12, at the indicated concentrations, in the presence of VEGF (20 ng/mL) for 24 h in 1% serum-containing media. […] Cells that migrated through the membrane (8 μm pore size) were stained with hematoxylin and eosin, pictured as shown in upper panel, and counted (graph). *P < 0.05, **P < 0.01 versus VEGF-treated control. […] (F) Compound 12 (0.1 μg and 1 μg dosages) and retinoic acid (RA, positive control) were applied to the ED 4.5 CAM for two days, neovessel formation from the large vessels was observed, and percentages of positive angiogenic eggs (from total eggs tested) were calculated. […]

Molecules are shown by their SMILES.

As for `COc1ccc(-c2cn(CC3(C)C=Cc4cc([N+](=O)[O-])ccc4O3)nn2)cc1` (stereo not shown) [Compound 12, 4-(4-methoxyphenyl)-1-((2-methyl-6-nitro-2H-chromen-2-yl)methyl)-1H-1,2,3-triazole], the CAM angiogenesis entry is “significantly suppressed CAM angiogenesis, in a dose-dependent manner”.
